Reference: US8592451B2, “Reversible nondepolarizing neuromuscular blockade agents and methods for their use” (Cornell University, priority 2009, dated 2013)

How the values were obtained:
[1] = L-cysteine adduction kinetics in vitro (HPLC); type: physicochemical; details: pH 7.4, 37° C.; for NMBA peak area / [NMBA] remaining / ln* = ln (([NMBA]t[L-cysteine]t=0)/([NMBA]t=0[L-cysteine]t)): gantacurium 200 μg/mL + L-cysteine
Procedure: In a second experiment, to evaluate degradation in the presence of L-cysteine, buffered solutions (pH 7.4) of gantacurium, CW 002 or CW 011 were freshly prepared at 37° C. to give experimental concentrations of 1000 μg/mL (CW 002 and CW 011) and 200 μg/mL (gantacurium), after addition to and mixing with a 5% Molar excess of L-cysteine at time=0.
The concentration of neuromuscular blocking agent/parent compound remaining at specified time points after mixing was determined by high performance liquid chromatography. The concentration of blocking agent at each time point was determined from a separately prepared reaction mixture, due to the rapid rate of L-cysteine adduction. The reaction rate constant for the second order reaction of each neuromuscular blockade agent (NMBA) with L-cysteine was derived by plotting the natural log of ([NMBA]t[L-cysteine]t=0/[NMBA]t=0[L-cysteine]t) vs. time.
Concentrations selected were 200, 100 and 50 μg/ml which are approximately proportional to the relative potencies (ED 95) of gantacurium, CW 002 and CW 011 respectively. A degradation (adduction) pathway in the presence of L-cysteine for each of the three compounds was proposed.
The reaction of L-cysteine with CW 002, CW 011 or gantacurium is first order in the case of both the neuromuscular blockade agent (NMBA) and L-cysteine, represented by the rate equation (1). d[Adduct]/dt=−d[NMBA]/dt=ka[NMBA][L-cysteine] (1)
Calculation of the L-cysteine adduction half time requires experimental derivation of the reaction rate constant, ka, for each compound. The initial concentrations of NMBA and L-cysteine are unequal in the experiments conducted for this study, thus integration of equation 1 gives equation 2, where [NMBA]0 is the NMBA concentration at time equals 0 and [NMBA]t is the NMBA concentration at a time point, t.
[formula] A plot of the ln(([NMBA]t [L-cysteine]0)/([NMBA]0 [L-cysteine]t)) versus time (ln* vs. t) gives a line, with slope equal to ka([NMBA]0−[L-cysteine]0). An adduction reaction half time can be calculated by solving for ka to be used in equation 3.
NMBA standard solutions were prepared by a method similar to that used to prepare hydrolysis standards. The standards were prepared at 1000 μg/mL for CW 002 and CW 011 and 200 μg/mL for gantacurium.
Solutions used for determination of NMBA concentration at the reported times for CW 002 and CW 011 were prepared as follows: L-cysteine hydrochloride monohydrate was charged to a volumetric flask in de-ionized water. A 5 mL aliquot of the L-cysteine solution (1.05 equiv. L-cysteine with respect to NMBA) was transferred by volumetric pipette to a flask held at 37.0±0.3° C. CW 002 or CW 011 was then charged to a separate 25 mL volumetric flask and diluted to volume with pH 7.4 phosphate buffer at 37.0° C. The NMBA solution was then immediately transferred to the flask containing L-cysteine to give an initial NMBA concentration of 1000 μg/mL. Solutions used for determination of gantacurium concentration versus time were prepared in a similar manner to give an initial concentration of 200 μg/mL. T=0 was defined as the time of addition of NMBA solution to L-cysteine solution. The times listed in the results table show the point of HPLC sample injection following mixing of L-cysteine and NMBA at time=0 (Table 1, below).
Rate constants were calculated using equation (3) and the slope of the trend line derived from each data set. The strong linear correlation of the data within each set supports the use of second order kinetics for analysis of the cysteine adduction reactions.
Reaction half times were calculated using equation 4 and the experimentally determined rate constants. The initial NMBA concentrations were chosen to reflect the relative potency observed in vivo.

[2] = tested on: twitch of the extensor digitorum; assay: Reversal of neuromuscular blockade by L-cysteine or neostigmine in anesthetized rhesus monkeys; type: in vivo, rhesus monkeys (Macaca mulatta)
Procedure: A control dose of 0.15 mg/kg CW 002 was allowed to recover spontaneously to TOF 110-120%. A second dose was given 60 minutes later, followed one minute afterwards by either neostigmine (0.05 mg/kg+atropine 0.05 mg/kg) or L-cysteine (10, 20, 30 or 50 mg/kg). Total duration and 5-95% recovery intervals were compared during spontaneous recovery vs. antagonism by L-cysteine or reversal by neostigmine.
This series of paired comparisons was designed to generate dose-response data comparing spontaneous recovery of high doses of CW 011 (from 4 to 64× ED95) versus immediate antagonism at +1 min by an optimal dose of L-cysteine (50 mg/kg), previously determined during studies of immediate antagonism of CW 002. This experiment was done to explore the limits of chemical antagonism by L-cysteine of these olefinic diester neuromuscular blocking drugs, using CW 011 as a typical example with an intermediate duration of action. Five groups of animals first received a control dose of CW 011 at 4, 8, 16, 32 or 64× ED 95 (0.1 to 1.6 mg/kg). Sixty minutes after spontaneous recovery of the control dose to TOF 110-120%, the same dose was repeated, followed 1 min later by L-cysteine (50 mg/kg). Total duration of action and 5-95% recovery interval were compared during spontaneous recovery and following antagonism by L-cysteine
The reversal of neuromuscular blockade by cysteine (5-50 mg/kg i.v.) was studied. Reversal was tested as follows: full paralysis was induced by injection of a dose of approximately 2-6× ED 95 of the compound in question. After spontaneous recovery of this dose, a second identical dose was given 15-30 min later. Cysteine was then given at +1 min after injection of the neuromuscular blocking drug at a point where no twitch was apparent (“immediate reversal”) or at the beginning of recovery from neuromuscular blockade at two percent twitch height (“classical reversal”). Comparisons were made among compounds with respect to rapidity and ease of cysteine reversal, by comparing 5-95% recovery times, and total durations of action (injection to 95% twitch recovery). Spontaneous recovery was compared with cysteine-accelerated recovery. […]

[3] = tested on: twitch of the extensor digitorum; assay: Neuromuscular blocking potency and duration in anesthetized rhesus monkeys; type: in vivo, rhesus monkeys (Macaca mulatta)
Procedure: Experiments were approved by the Institutional Animal Care and Use Committee of Weill Medical College of Cornell University (New York, N.Y.) and of Albany Medical College (Albany, N.Y.), where the studies were conducted. A colony of 10 adult male monkeys (Macaca mulatta) weighing 8-18 kg was studied at ˜6 week intervals. Animals were housed and cared for in accordance with the Guide for Care and Use of Laboratory Animals (National Research Council, Washington, D.C.). They were fed a standard Old World monkey diet, enriched with fruits and vegetables, and other dietary novelties and were followed throughout the study to verify normal health by physical examination, body weight, and clinical laboratory studies (Complete Blood Count, Blood Urea Nitrogen and creatinine, and liver function tests).
On the day of each study, monkeys received ketamine (7-10 mg/kg i.m.) followed by tracheal intubation under topical anesthesia with 4% lidocaine. Ventilation was controlled at 10 mL/kg and 20 breaths/min with isoflurane (1.0-2.0%) and N2O/O2 (2:1 mixture). Ringers lactate was administered at ˜10 ml kg^−1 h^−1. Arterial pressure was monitored from a femoral, superficial tibial, or radial (22 gauge) cannula. Heart rate was measured by tachograph from the arterial pulse wave. Core temperature was kept at 36.5-38.0° C. by warming blankets. Electrocardiogram and pulse oximetry were monitored continuously.
Needle electrodes (25 gauge) transmitting square-wave pulses of 0.2 msec duration at supramaximal voltage which were generated by a Grass S-88 stimulator (Grass Instruments, Quincy, Mass.) were placed at the peroneal nerve at the knee to elicit twitch responses of the extensor digitorum of the foot at 0.15 Hz. A small slip (10-20%) of the tendon was dissected free under sterile technique and tied to a Grass FT 10 force transducer (Grass Instruments, Quincy, Mass.) at a baseline tension of 50 gm. Train-of four stimulation (TOF, 2 Hz for 2 sec) was interposed at appropriate points, especially 1-2 min prior to NMBA dosing and following recovery of twitch to 95% of baseline, where TOF was subsequently evaluated every 1-2 min.
Recordings of circulatory and neuromuscular data were made on a Grass 7B polygraph (Grass Instruments). A baseline period of 15-20 min was allowed for stabilization of recordings prior to dosing.^2
Dose-response curves for twitch blockade by gantacurium, CW 002, CW 011, cisatracurium, CW002-Cys, NB 938-69, NB 1064-81, NB 802-17 (CW 001), NB 832-65, and NB 1163-79, structures of which are all shown above, were generated as follows. […] Successive doses were separated by at least three estimated half lives beyond complete recovery of the previous dose to TOF of 110-120%, which is normal for these monkeys. Only the first one or two doses yielding 5 to 99% blockade were included from any single experiment for computation of dose-response data.
Comparative studies of spontaneous recovery versus antagonism/reversal were done at least 3 estimated half-lives following dose-response studies.
ED 50 and ED 95 were computed from the regression of log dose vs. the logit of percentage blockade of twitch.
CW002-Cys, the L-cysteine adduct of CW 002, was available in limited quantity and was administered in cumulative fashion to three animals to compare approximate potency and duration of effect versus its parent compound CW 002.

## COc1cc2c(cc1OC)[C@H](c1cc(OC)c(OC)c(OC)c1)[N@@+](C)(CCCOC(=O)/C=C(\Cl)C(=O)OCCC[N@+]1(C)CCc3cc(OC)c(OC)cc3[C@H]1Cc1cc(OC)c(OC)c(OC)c1)CC2 [Gantacurium, reference compound]
[1]; L-cysteine adduction, data of Table 1
  Plot Slope (ln* vs. time): −0.0145
[1]; Trial 1, 59 Sec
  NMBA peak area: 476.7 mAU's
  [NMBA] remaining: 33 µM
  ln* = ln (([NMBA]t[L-cysteine]t=0)/([NMBA]t=0[L-cysteine]t)): −0.46
[1]; Trial 2, 67 Sec
  NMBA peak area: 384.2 mAU's
  [NMBA] remaining: 27 µM
  ln* = ln (([NMBA]t[L-cysteine]t=0)/([NMBA]t=0[L-cysteine]t)): −0.56
[1]; Trial 3, 70 Sec
  NMBA peak area: 344.2 mAU's
  [NMBA] remaining: 24 µM
  ln* = ln (([NMBA]t[L-cysteine]t=0)/([NMBA]t=0[L-cysteine]t)): −0.62
[1]; Trial 4, 78 Sec
  NMBA peak area: 281.5 mAU's
  [NMBA] remaining: 20 µM
  ln* = ln (([NMBA]t[L-cysteine]t=0)/([NMBA]t=0[L-cysteine]t)): −0.73
[1]
  ka, second order rate constant of L-cysteine adduction: 529.6 M⁻¹ s⁻¹
[1]; pH 7.4 buffered solution with L-cysteine, calculated at [NMBA]0 0.000188 M (200 μg/ml), read-out: L-cysteine adduction reaction half time t1/2
  half-life at 200 μg/ml: 12 s
[2]; immediate reversal
  effect of neostigmine given immediately after the blocking drug: ineffective
[2]; neostigmine given at beginning of spontaneous recovery, e.g. at 2% twitch height
  classical antagonism of neuromuscular blockade by neostigmine: showed antagonism

## COc1ccc(C[C@@H]2c3cc(OC)c(OC)cc3CC[N@@+]2(C)CCCOC(=O)CCC(=O)OCCC[N@+]2(C)CCc3cc(OC)c(OC)cc3[C@H]2Cc2ccc(OC)c(OC)c2)cc1OC [NB 1163-79]
[3]; administered dose 0.04 mg/kg, spontaneous recovery
  Duration (± SD/SEM), from injection to recovery of twitch to 95% of baseline: 27.2 ± 2.6 min
[3]; twitch blockade, monkeys under isoflurane, twitch at 0.15 Hz, calculated from dose-response curve
  ED 95 (± SD/SEM): 0.032 ± 0.003 mg/kg
